In PubChem BioAssay (NCI):
Where “and” joins values, the source holds several entries; their conditions need not be identical. Identical values can stand only once.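 1) Cells in 96-well plates. 2) Compound, 48 h, 5 concentrations. 3) Linear interpolation between surrounding doses. 4) Unreached endpoint = highest concentration. GI50 = concentration required for 50% inhibition of growth. TGI marks complete inhibition of growth.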

Assays:
Test in all cases: NCI anticancer screen, dose series, 48 h
COLO 205 colon = system: COLO 205 colon
MALME-3M melanoma = system: MALME-3M melanoma
SK-MEL-28 melanoma = system: SK-MEL-28 melanoma
MDA-MB-231 breast = system: MDA-MB-231 breast
UACC-257 melanoma = system: UACC-257 melanoma
UO-31 renal = system: UO-31 renal
SK-MEL-5 melanoma = system: SK-MEL-5 melanoma
PC-3 prostate = system: PC-3 prostate
786-0 renal = system: 786-0 renal
HS 578T breast = system: HS 578T breast
RPMI-8226 leukemia = system: RPMI-8226 leukemia
M14 melanoma = system: M14 melanoma
OVCAR-8 ovarian = system: OVCAR-8 ovarian
NCI-H522 lung = system: NCI-H522 lung
SNB-19 CNS = system: SNB-19 CNS
A549 NSCLC = system: A549 NSCLC
HCC-2998 colon = system: HCC-2998 colon
HCT-116 colon = system: HCT-116 colon
NCI-H226 lung = system: NCI-H226 lung
NCI-H23 lung = system: NCI-H23 lung
SK-MEL-2 melanoma = system: SK-MEL-2 melanoma
SW-620 colon = system: SW-620 colon
OVCAR-5 ovarian = system: OVCAR-5 ovarian
HCT-15 colon = system: HCT-15 colon
NCI/ADR-RES ovarian = system: NCI/ADR-RES ovarian
MOLT-4 leukemia = system: MOLT-4 leukemia
EKVX NSCLC = system: EKVX NSCLC
SN12C renal = system: SN12C renal
SF-539 CNS = system: SF-539 CNS
SNB-75 CNS = system: SNB-75 CNS
TK-10 renal = system: TK-10 renal
HOP-62 NSCLC = system: HOP-62 NSCLC
A498 renal = system: A498 renal
RXF 393 renal = system: RXF 393 renal
HT29 colon = system: HT29 colon
HOP-92 NSCLC = system: HOP-92 NSCLC
K-562 leukemia = system: K-562 leukemia
CCRF-CEM leukemia = system: CCRF-CEM leukemia
UACC-62 melanoma = system: UACC-62 melanoma
U251 CNS = system: U251 CNS
SR leukemia = system: SR leukemia
OVCAR-4 ovarian = system: OVCAR-4 ovarian
T-47D breast = system: T-47D breast
MCF7 breast = system: MCF7 breast
IGROV1 ovarian = system: IGROV1 ovarian
BT-549 breast = system: BT-549 breast
KM12 colon = system: KM12 colon
CAKI-1 renal = system: CAKI-1 renal
MDA-MB-435 = system: MDA-MB-435
OVCAR-3 ovarian = system: OVCAR-3 ovarian
DU-145 prostate = system: DU-145 prostate
LOX IMVI melanoma = system: LOX IMVI melanoma
SF-295 CNS = system: SF-295 CNS
ACHN renal = system: ACHN renal
SF-268 CNS = system: SF-268 CNS
SK-OV-3 ovarian = system: SK-OV-3 ovarian
HL-60(TB) leukemia = system: HL-60(TB) leukemia
NCI-H460 lung = system: NCI-H460 lung

O=c1[nH]cnc2[nH]ncc12
GI50 (COLO 205 colon): 440 µM
TGI (COLO 205 colon): > 5000 µM
GI50 (MALME-3M melanoma): 1330 µM
TGI (MALME-3M melanoma): > 5000 µM
GI50 (SK-MEL-28 melanoma): 2000 µM
TGI (SK-MEL-28 melanoma): > 5000 µM
GI50 (MDA-MB-231 breast): 163 µM
TGI (MDA-MB-231 breast): 1750 µM
GI50 (UACC-257 melanoma): 788 µM
TGI (UACC-257 melanoma): > 5000 µM
GI50 (UO-31 renal): > 64.9 µM and 525 µM
TGI (UO-31 renal): > 5000 µM
GI50 (SK-MEL-5 melanoma): 1200 µM
TGI (SK-MEL-5 melanoma): > 5000 µM
GI50 (PC-3 prostate): 253 µM
TGI (PC-3 prostate): > 5000 µM
GI50 (786-0 renal): 400 µM
TGI (786-0 renal): > 5000 µM
GI50 (HS 578T breast): 2540 µM
TGI (HS 578T breast): > 5000 µM
GI50 (RPMI-8226 leukemia): 116 µM
TGI (RPMI-8226 leukemia): > 5000 µM
GI50 (M14 melanoma): 234 µM
TGI (M14 melanoma): > 5000 µM
GI50 (OVCAR-8 ovarian): 214 µM
TGI (OVCAR-8 ovarian): > 5000 µM
GI50 (NCI-H522 lung): > 84.4 µM and 272 µM
TGI (NCI-H522 lung): > 5000 µM
GI50 (SNB-19 CNS): > 5000 µM
TGI (SNB-19 CNS): > 5000 µM
GI50 (A549 NSCLC): 1940 µM
TGI (A549 NSCLC): > 5000 µM
GI50 (HCC-2998 colon): 319 µM
TGI (HCC-2998 colon): > 5000 µM
GI50 (HCT-116 colon): 444 µM
TGI (HCT-116 colon): > 5000 µM
GI50 (NCI-H226 lung): 878 µM
TGI (NCI-H226 lung): > 5000 µM
GI50 (NCI-H23 lung): 227 µM
TGI (NCI-H23 lung): > 1870 µM
GI50 (SK-MEL-2 melanoma): > 36.5 µM and 257 µM
TGI (SK-MEL-2 melanoma): > 5000 µM
GI50 (SW-620 colon): 356 µM
TGI (SW-620 colon): > 5000 µM
GI50 (OVCAR-5 ovarian): 486 µM
TGI (OVCAR-5 ovarian): > 1550 µM
GI50 (HCT-15 colon): 143 µM
TGI (HCT-15 colon): > 5000 µM
GI50 (NCI/ADR-RES ovarian): 214 µM
TGI (NCI/ADR-RES ovarian): > 1250 µM
GI50 (MOLT-4 leukemia): 972 µM
TGI (MOLT-4 leukemia): > 5000 µM
GI50 (EKVX NSCLC): 785 µM
TGI (EKVX NSCLC): > 5000 µM
GI50 (SN12C renal): 485 µM
TGI (SN12C renal): > 5000 µM
GI50 (SF-539 CNS): 2010 µM
TGI (SF-539 CNS): > 5000 µM
GI50 (SNB-75 CNS): 1180 µM
TGI (SNB-75 CNS): > 4110 µM
GI50 (TK-10 renal): > 94.6 µM and 258 µM
TGI (TK-10 renal): > 5000 µM
GI50 (HOP-62 NSCLC): 353 µM
TGI (HOP-62 NSCLC): > 5000 µM
GI50 (A498 renal): 532 µM
TGI (A498 renal): > 5000 µM
GI50 (RXF 393 renal): 266 µM
TGI (RXF 393 renal): > 5000 µM
GI50 (HT29 colon): 842 µM
TGI (HT29 colon): > 5000 µM
GI50 (HOP-92 NSCLC): 163 µM
TGI (HOP-92 NSCLC): > 3250 µM
GI50 (K-562 leukemia): 179 µM
TGI (K-562 leukemia): > 5000 µM
GI50 (CCRF-CEM leukemia): 360 µM
TGI (CCRF-CEM leukemia): > 5000 µM
GI50 (UACC-62 melanoma): 166 µM
TGI (UACC-62 melanoma): > 2560 µM
GI50 (U251 CNS): 1560 µM
TGI (U251 CNS): > 4470 µM
GI50 (SR leukemia): 480 µM
TGI (SR leukemia): > 2670 µM
GI50 (OVCAR-4 ovarian): 160 µM
TGI (OVCAR-4 ovarian): > 3050 µM
GI50 (T-47D breast): 698 µM
TGI (T-47D breast): > 5000 µM
GI50 (MCF7 breast): 259 µM
TGI (MCF7 breast): > 5000 µM
GI50 (IGROV1 ovarian): 54.6 µM and 422 µM
TGI (IGROV1 ovarian): > 5000 µM
GI50 (BT-549 breast): 578 µM
TGI (BT-549 breast): > 5000 µM
GI50 (KM12 colon): 1250 µM
TGI (KM12 colon): > 5000 µM
GI50 (CAKI-1 renal): 97.2 µM
TGI (CAKI-1 renal): > 5000 µM
GI50 (MDA-MB-435): 380 µM
TGI (MDA-MB-435): > 5000 µM
GI50 (OVCAR-3 ovarian): 269 µM
TGI (OVCAR-3 ovarian): > 1820 µM
GI50 (DU-145 prostate): > 92.6 µM and 189 µM
TGI (DU-145 prostate): > 2150 µM
GI50 (LOX IMVI melanoma): 142 µM
TGI (LOX IMVI melanoma): > 5000 µM
GI50 (SF-295 CNS): 349 µM
TGI (SF-295 CNS): > 5000 µM
GI50 (ACHN renal): 193 µM
TGI (ACHN renal): > 5000 µM
GI50 (SF-268 CNS): > 5000 µM
TGI (SF-268 CNS): > 5000 µM
GI50 (SK-OV-3 ovarian): > 85.9 µM and 111 µM
TGI (SK-OV-3 ovarian): > 4080 µM
GI50 (HL-60(TB) leukemia): > 79.9 µM and 108 µM
TGI (HL-60(TB) leukemia): > 3420 µM
GI50 (NCI-H460 lung): 1510 µM
TGI (NCI-H460 lung): > 5000 µM
